Read-outs that look alike come from different tables or passages of the source. Bridge positions count the residues as written; N and C are the ends. Square brackets hold non-standard residues; d marks the D form. Peptide text beside a SMILES is read from it. Nle = CCCC[C@H](N)C(=O)O
Biological target: T1, bovine trypsin (Bos taurus, UniProt P00760)
T1 sequence (P00760 24-246): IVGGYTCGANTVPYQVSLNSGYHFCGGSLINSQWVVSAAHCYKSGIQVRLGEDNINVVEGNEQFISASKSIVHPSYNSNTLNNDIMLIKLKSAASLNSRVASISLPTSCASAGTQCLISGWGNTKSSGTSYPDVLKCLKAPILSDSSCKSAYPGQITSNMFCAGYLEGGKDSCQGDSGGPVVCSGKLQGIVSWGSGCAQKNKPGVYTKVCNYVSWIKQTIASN
Test: Trypsin inhibitory activity of peptides (BApNA hydrolysis, OD405; IC50, Ki, residual activity)
Assay type: biochemical
Settings: for IC50: trypsin 50 nM, BApNA 1.22 mM, read-out: IC50; for Ki: Ki=IC50/(1+S/Km), Km 0.33 mM, read-out: Ki
Procedure: The substrates N-succinyl-Ala-Ala-Pro-Phe-p-nitroaniline (AAPFpNA), Nα—Benzoyl-L-arginine-4-nitroaniline hydrochloride (BApNA) and N-succinyl-[…] (AAApNA) are used in competitive binding reaction to determine the inhibitory activities against α-chymotrypsin, bovine trypsin, and porcine pancreatic elastase, respectively. Experiments for α-chymotrypsin and bovine trypsin inhibition were measured in 20 mM CaCl2, 50 mM Tris-HCl buffer (pH 7.8), and that for porcine elastase inhibition was measured in 50 mM Tris-HCl buffer (pH 8.0). The concentration of the peptide was measured using optical density (OD) at 280 nm. The Michaelis constant (Km) of the enzyme hydrolysis substrate is calculated from the initial rate of substrate hydrolysis at 405 nm. The absorbance value of the substrate was measured at 405 nm after complete hydrolysis. All data were processed using nonlinear regression.
• (1) Added 200 μL of reaction buffer (20 mM CaCl2 and 50 mM Tris-HCl, pH 7.8) into the 96-well plate, and preheated at 37° C. for 15 min. Then added 5 μL of different concentrations of substrates (p-Nitroanilide, pNA, 0.5% in DMSO), and mixed by centrifugation at 500 rpm for 1 min. […] The experiment was performed in triplicate. The standard curve was obtained by plotting the OD405 nm value with pNA concentration. • (2) Added 190 μL of reaction buffer (20 mM CaCl2 and 50 mM Tris-HCl, pH 7.8) and 10 μL of 1 μM trypsin into the 96-well plate, and preheated at 37° C. for 15 min. Then added 5 μL of different concentrations of substrates (BApNA, 0.5% in DMSO) and mixed by centrifugation at 500 rpm for 1 min. […] The experiment was performed in triplicate. The corresponding curve was obtained by plotting the OD405 nm value with time. Divided the slope of the curve by the slope of the standard curve and the enzyme concentration to obtain the initial velocity V0 (mM/(min*mM protein). Plotted the initial velocity V0 with the concentration of substrate BApNA using Prism software, and the Michaelis constant Km value of trypsin hydrolyzing BApNA was obtained.
• (1) Added a total 190 μL of reaction buffer (20 mM CaCl2 and 50 mM Tris-HCl, pH 7.8) along with different concentrations of anti-trypsin peptides (BTs) into the pre-cooled 96-well plate, followed by preheating at 37° C., and spined down at 500 rpm for 5 min. Next added 10 μL of 1 μM trypsin, incubated at 37° C., and then spined down at 500 rpm for 10 min. Finally, added 5 μL of 50 mM BApNA, and mixed by centrifugation at 500 rpm for 1 min. The plate was incubated at 37° C. for 260 min, and the absorbance value at 405 nm was measured. The experiment was performed in triplicate. The blank control only contained the reaction buffer and the substrate as the minimum absorption value (Min OD405 nm). The negative control only contained the reaction buffer, the enzyme and the substrate as the maximum absorption value (Max OD405 nm). • (2) In the reaction system of 205 μL, the final concentrations of trypsin and BApNA were 50 nM and 1.22 mM, respectively. • (3) Data statistics
Residual activity of the enzyme (%)=(1−(Max OD405 nm−Sample OD405 nm)/(Max OD405 nm−Min OD405 nm))*100
Plotted the residual activity of the enzyme with […] to obtain the half inhibitory concentration (IC50) of BTs scaffold against trypsin. Then, substituted it into the formula Ki=IC50/(1+S/Km) (S, IC50 and Km were substrate concentration, half inhibitory concentration and Michaelis constant, respectively) to obtain the inhibition constant Ki of BTs scaffold against trypsin.

Structure (SMILES)	inhibitory activity against trypsin (in words)	Residual trypsin activity (peptide 0.00098 μM) [%]	Residual trypsin activity (peptide 0.0098 μM) [%]	Residual trypsin activity (peptide 0.098 μM) [%]	Residual trypsin activity (peptide 0.98 μM) [%]	Residual trypsin activity (peptide 9.76 μM) [%]	Residual trypsin activity (peptide 97.56 μM) [%]	also measured
CC[C@H](C)[C@@H]1NC(=O)[C@@H]2CCCN2C(=O)[C@@H]2CCCN2C(=O)[C@H]([C@@H](C)CC)NC(=O)[C@H](CO)NC(=O)[C@H](CCCNC(=N)N)NC(=O)[C@H]([C@@H](C)O)NC(=O)[C@H](C)NC(=O)[C@H](CCCNC(=N)N)NC(=O)CNC(=O)[C@@H](N)CSSC[C@@H](C(=O)N[C@@H](C)C(=O)O)NC1=O [BT19] (H-CGRATRSIPPICA-OH; disulfide 1-12; N-terminus and C-terminus assumed)	significant impact on their anti-trypsisn activities							
CC[C@H](C)[C@@H]1NC(=O)[C@H](CO)NC(=O)[C@H](CCCNC(=N)N)NC(=O)[C@H]([C@@H](C)O)NC(=O)[C@H](C)NC(=O)[C@H](CCCNC(=N)N)NC(=O)CNC(=O)[C@@H](N)CSSC[C@@H](C(=O)N[C@@H](Cc2ccccc2)C(=O)O)NC(=O)[C@H]([C@@H](C)CC)NC(=O)[C@@H]2CCCN2C(=O)[C@H](C)NC1=O [BT20] (H-CGRATRSIAPICF-OH; disulfide 1-12 (inferred); N-terminus and C-terminus assumed)								IC50: > 50000 nM
CC[C@H](C)[C@@H]1NC(=O)[C@@H]2CCCN2C(=O)[C@@H]2CCCN2C(=O)[C@H]([C@@H](C)CC)NC(=O)[C@H](CO)NC(=O)[C@H](CCCCN)NC(=O)[C@H]([C@@H](C)O)NC(=O)[C@H](C)NC(=O)[C@H]([C@@H](C)O)NC(=O)CNC(=O)[C@@H](N)CSSC[C@@H](C(=O)N[C@@H](CC(N)=O)C(=O)O)NC1=O [BT24] (H-CGTATKSIPPICN-OH; disulfide 1-12; N-terminus and C-terminus assumed)	significant impact on their anti-trypsisn activities							
CC[C@H](C)[C@@H]1NC(=O)[C@@H]2CCCN2C(=O)[C@@H]2CCCN2C(=O)[C@H]([C@@H](C)CC)NC(=O)[C@H](CO)NC(=O)[C@H](CCCCN)NC(=O)[C@H]([C@@H](C)O)NC(=O)[C@H](C)NC(=O)[C@H]([C@@H](C)O)NC(=O)CNC(=O)[C@@H](N)CSSC[C@@H](C(=O)N[C@@H](Cc2ccccc2)C(=O)O)NC1=O [BT25] (H-CGTATKSIPPICF-OH; disulfide 1-12; C-terminus assumed)	excellent trypsin inhibitory activities	100.6 ± 1.3	99.6 ± 1.4	100.4 ± 1.2	49.7 ± 3.5	1.0 ± 0.1	0.2 ± 0.1	Residual trypsin activity (peptide 0.7317 μM): 82.3 ± 3.9%; Residual trypsin activity (peptide 1.2195 μM): 23.2 ± 2.1%; Residual trypsin activity (peptide 292.68 μM): 0.2 ± 0.2%
CCCC[C@@H]1NC(=O)[C@H](CO)NC(=O)[C@H](CCCCN)NC(=O)[C@H]([C@@H](C)O)NC(=O)[C@H](C)NC(=O)[C@H](CCCNC(=N)N)NC(=O)CNC(=O)[C@@H](N)CSSC[C@@H](C(=O)N[C@@H](Cc2ccccc2)C(=O)O)NC(=O)[C@H]([C@@H](C)CC)NC(=O)[C@@H]2CCCN2C(=O)[C@@H]2CCCN2C1=O [BT28] (H-CGRATKS[Nle]PPICF-OH; disulfide 1-12; C-terminus assumed)	reduced their anti-trypsin activities	102.3 ± 0.7	101.8 ± 0.1	92.2 ± 5.5	0.7 ± 0.0	0.1 ± 0.0	0.0 ± 0.0	Ki: 60 nM; inhibitory activity against trypsin (in words) (listed as SEQ ID NO: 28): excellent trypsin inhibitory activities; Residual trypsin activity (peptide 0.195 μM): 77.6 ± 8.3%; Residual trypsin activity (peptide 0.293 μM): 52.7 ± 5.9%; Residual trypsin activity (peptide 0.390 μM): 16.7 ± 3.7%; IC50: 290 nM

More lines, main results first:

inhibitory activity against trypsin (in words)	Residual trypsin activity (peptide 0.00098 μM) [%]	Residual trypsin activity (peptide 0.0098 μM) [%]	Residual trypsin activity (peptide 0.098 μM) [%]	Residual trypsin activity (peptide 0.98 μM) [%]	Residual trypsin activity (peptide 9.76 μM) [%]	Residual trypsin activity (peptide 97.56 μM) [%]	Structure (SMILES)	also measured
reduced their anti-trypsin activities							CC[C@H](C)[C@@H]1NC(=O)[C@@H]2CCCN2C(=O)[C@@H]2CCCN2C(=O)[C@H](C)NC(=O)[C@H](CO)NC(=O)[C@H](CCCNC(=N)N)NC(=O)[C@H]([C@@H](C)O)NC(=O)[C@H](C)NC(=O)[C@H](CCCNC(=N)N)NC(=O)CNC(=O)[C@@H](N)CSSC[C@@H](C(=O)N[C@@H](Cc2ccccc2)C(=O)O)NC1=O [BT21] (H-CGRATRSAPPICF-OH; disulfide 1-12; N-terminus and C-terminus assumed)	
reduced their anti-trypsin activities							CC[C@H](C)[C@@H]1NC(=O)[C@@H]2CCCN2C(=O)[C@@H]2CCCN2C(=O)[C@H]([C@@H](C)CC)NC(=O)[C@H](C)NC(=O)[C@H](CCCNC(=N)N)NC(=O)[C@H]([C@@H](C)O)NC(=O)[C@H](C)NC(=O)[C@H](CCCNC(=N)N)NC(=O)CNC(=O)[C@@H](N)CSSC[C@@H](C(=O)N[C@@H](Cc2ccccc2)C(=O)O)NC1=O [BT22] (H-CGRATRAIPPICF-OH; disulfide 1-12; N-terminus and C-terminus assumed)	
		99.5 ± 0.9	100.2 ± 1.4	94.5 ± 0.7	0.4 ± 0.1	0.1 ± 0.0	CC[C@H](C)[C@@H]1NC(=O)[C@@H]2CCCN2C(=O)[C@@H]2CCCN2C(=O)[C@H]([C@@H](C)CC)NC(=O)[C@H](CO)NC(=O)[C@H](CCCCN)NC(=O)[C@H](C)NC(=O)[C@H](C)NC(=O)[C@H](CCCNC(=N)N)NC(=O)CNC(=O)[C@@H](N)CSSC[C@@H](C(=O)N[C@@H](Cc2ccccc2)C(=O)O)NC1=O [BT26] (H-CGRAAKSIPPICF-OH; disulfide 1-12; N-terminus and C-terminus assumed)	Residual trypsin activity (peptide 1.95 μM): 77.6 ± 3.1%; Residual trypsin activity (peptide 2.439 μM): 55.1 ± 1.3%; Residual trypsin activity (peptide 3.90 μM): 1.4 ± 0.1%; Residual trypsin activity (peptide 975.61 μM): 0.5 ± 0.0%
reduced their anti-trypsin activities	98.9 ± 1.5	103.5 ± 2.4	92.0 ± 1.9	1.3 ± 0.3	0.1 ± 0.0	0.1 ± 0.0	CC[C@H](C)[C@@H]1NC(=O)[C@@H]2CCCN2C(=O)[C@@H]2CCCN2C(=O)[C@H]([C@@H](C)CC)NC(=O)[C@H](C)NC(=O)[C@H](CCCCN)NC(=O)[C@H]([C@@H](C)O)NC(=O)[C@H](C)NC(=O)[C@H](CCCNC(=N)N)NC(=O)CNC(=O)[C@@H](N)CSSC[C@@H](C(=O)N[C@@H](Cc2ccccc2)C(=O)O)NC1=O [BT27] (H-CGRATKAIPPICF-OH; disulfide 1-12; C-terminus assumed)	Ki: 60 nM; inhibitory activity against trypsin (in words) (listed as SEQ ID NO: 27): excellent trypsin inhibitory activities; Residual trypsin activity (peptide 0.000098 μM): 101.0 ± 0.7%; Residual trypsin activity (peptide 0.195 μM): 74.1 ± 1.3%; Residual trypsin activity (peptide 0.293 μM): 49.2 ± 3.0%; Residual trypsin activity (peptide 0.390 μM): 19.9 ± 6.3%

From patent publication US20230416329A1, “A PEPTIDE WITH DISULFIDE BONDS AND INHIBITORY ACTIVITY AGAINST SERINE PROTEASES, DERIVED HYBRID PEPTIDES THEREOF, AND USES THEREOF” (INSTITUTE OF MATERIA MEDICA , CHINESE ACADEMY OF MEDICAL …, priority 2020, published 2023)
